Test results published in US20060019964A1, “Compounds” (priority 2002, published 2006).

Experiments:
[1] = Rat pharmacokinetics; format: in vivo, male CD Sprague Dawley rats
Method: Compounds were dosed to male CD Sprague Dawley rats by single intravenous or oral administration at a nominal dose level of 1 mg/kg and 3 mg/kg respectively. Compounds were formulated in 5% DMSO,45% PEG200,50% water. An intravenous profile was obtained by taking serial or terminal blood samples at 0.083, 0.25, 0.5, 1, 2, 4, and 7 hours post dose. An oral profile was obtained by taking serial or terminal blood samples at 0.25, 0.5, 1, 2, 4, 7 and 12 hours post dose. Blood samples were taken directly into heparinised tubes. Blood samples were prepared by protein precipitation and subjected to quantitative analysis by LC-MS/MS using compound-specific mass transitions. Drug concentration-time profiles were generated and non-compartmental PK analysis used to generate estimates of half-life, clearance, volume of distribution and oral bioavailability.

[2] = Dog pharmacokinetics; format: in vivo, male Beagle dogs
Method: Compounds were dosed to male Beagle dogs by single intravenous or oral administration at a nominal dose level of 1 mg/kg and 2 mg/kg respectively. The study was carried out according to a crossover design such that the same dog was used for both dosing events and the dosing events occurred 1 week apart. Compounds were formulated in 5% DMSO,45% Peg200,50% water. An intravenous profile was obtained by taking serial blood samples at 0.083, 0.25, 0.5, 0.75, 1, 2, 4, 6 & 12 hr post dose. An oral profile was obtained by taking serial blood samples at 0.25, 0.5, 0.75, 1, 2, 4, 6, 12 & 24 hr post dose. Blood samples were taken directly into heparinised tubes. Blood samples were prepared by protein precipitation and subjected to quantitative analysis by LC-MS/MS using compound-specific mass transitions. Drug concentration-time profiles were generated and non-compartmental PK analysis used to generate estimates of half-life, clearance, volume of distribution and oral bioavailability.

[3] = CNS penetration; format: in vivo, male CD Sprague Dawley rats; details: male, CD Sprague Dawley, brain; rat, 1 mg/kg intravenous, 5 minutes post-dose; described as low CNS penetration; read-out: CNS penetration (compound in brain tissue)
Method: Compounds were dosed intravenously at a nominal dose level of 1 mg/kg to male CD Sprague Dawley rats. Compounds were formulated in 5% DMSO/45% PEG200/50% water. Blood samples were taken under terminal anaesthesia with isoflurane at 5 minutes post-dose and the brains were also removed for assessment of brain penetration. Blood samples were taken directly into heparinised tubes. Blood samples were prepared for analysis using protein precipitation and brain samples were prepared using extraction of drug from brain by homogenisation and subsequent protein precipitation. The concentration of parent drug in blood and brain extracts was determined by quantitative LC-MS/MS analysis using compound-specific mass transitions.

[4] = biological target: T1, human H1 receptor (Homo sapiens, UniProt P35367); experiment: Histamine H1 functional antagonist assay (FLIPR); format: cell-based; details: functional antagonism vs histamine EC80, FLIPR, CHO cells; read-out: average pki (pKb) at H1 (converted)
T1 construct: expressed in transfected cells
T1 sequence (P35367 whole entry): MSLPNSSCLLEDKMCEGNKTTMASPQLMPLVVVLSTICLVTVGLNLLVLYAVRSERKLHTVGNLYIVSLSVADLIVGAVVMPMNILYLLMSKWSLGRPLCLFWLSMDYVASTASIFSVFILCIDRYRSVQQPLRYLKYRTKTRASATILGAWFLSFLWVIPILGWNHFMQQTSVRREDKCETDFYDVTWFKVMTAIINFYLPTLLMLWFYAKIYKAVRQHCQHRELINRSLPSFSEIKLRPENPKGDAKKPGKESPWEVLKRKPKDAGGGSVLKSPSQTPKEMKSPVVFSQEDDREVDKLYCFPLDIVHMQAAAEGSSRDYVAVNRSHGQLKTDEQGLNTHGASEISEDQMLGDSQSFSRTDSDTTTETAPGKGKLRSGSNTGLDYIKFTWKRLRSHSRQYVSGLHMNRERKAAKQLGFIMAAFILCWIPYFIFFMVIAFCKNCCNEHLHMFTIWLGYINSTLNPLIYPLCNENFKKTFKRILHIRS
Method: H1 Receptor Cell Line Generation and FLIPR Assay Protocol
1. Generation of Histamine H1 Cell Line
The human H1 receptor was cloned using known procedures described in the literature [Biochem. Biophys. Res. Commun. 1994, 201(2), 894]. Chinese hamster ovary cells stably expressing the human H1 receptor were generated according to known procedures described in the literature [Br. J. Pharmacol. 1996, 117(6), 1071].
Histamine H1 Functional Antagonist Assay […]
10 μl of test compound, diluted to the required concentration in Tyrodes buffer+probenecid (or 10 μl Tyrodes buffer+probenecid as a control) was added to each well and the plate incubated for 30 min at 37° C., 5% CO2. The plates were then placed into a FLIPR™ (Molecular Devioes, UK) to monitor cell fluorescence (λex=488 nm, λEM=540 nm) in the manner described in Sullivan et al. (In: Lambert DG (ed.), Calcium Signaling Protocols, New Jersey: Humana Press, 1999, 125-136) before and after the addition of 10 μl histamine at a concentration that results in the final assay concentration of histamine being EC80.
Functional antagonism is indicated by a suppression of histamine induced increase in fluorescence, as measured by the FLIPR™ system (Molecular Devices). By means of concentration effect curves, functional affinities are determined using standard pharmacological mathematical analysis.

[5] = biological target: T2, histamine H3 receptor (Homo sapiens, UniProt Q9Y5N1); experiment: Histamine H3 functional antagonist assay ([35S]-GTPγS, CHO cell membranes); format: biochemical; details: functional antagonism vs histamine EC80, GTPγS; read-out: average pki (pKb) at H3 (converted)
T2 construct: expressed in transfected cells; host or cells: CHO K1 cells carrying pSwitch, transfected with pGeneH3, induced with mifepristone; clone 3H3; membrane preparation
T2 sequence (Q9Y5N1 whole entry, species assumed): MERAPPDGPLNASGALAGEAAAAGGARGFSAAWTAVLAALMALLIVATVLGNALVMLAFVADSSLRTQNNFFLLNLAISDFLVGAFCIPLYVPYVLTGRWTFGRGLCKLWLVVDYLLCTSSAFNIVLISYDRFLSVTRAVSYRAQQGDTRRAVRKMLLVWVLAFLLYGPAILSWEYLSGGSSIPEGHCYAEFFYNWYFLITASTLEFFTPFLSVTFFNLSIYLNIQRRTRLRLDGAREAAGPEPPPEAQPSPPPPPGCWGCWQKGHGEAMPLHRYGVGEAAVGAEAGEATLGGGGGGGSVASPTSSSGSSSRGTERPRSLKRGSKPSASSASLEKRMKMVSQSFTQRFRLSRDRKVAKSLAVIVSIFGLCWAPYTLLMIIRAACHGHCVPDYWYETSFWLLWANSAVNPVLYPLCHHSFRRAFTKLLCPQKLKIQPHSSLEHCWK
Excerpt: 2. H3 Receptor Cell Line Generation, Membrane Preparation and Functional GTPγS Assay Protocols
Generation of Histamine H3 Cell Line
The histamine H3 cDNA was isolated from its holding vector, pcDNA3.1 TOPO (InVitrogen), by restriction digestion of plasmid DNA with the enzymes BamH1 and Not-1 and ligated into the inducible expression vector pGene (InVitrogen) digested with the same enzymes. The GeneSwitch™ system (a system where in transgene expression is switched off in the absence of an inducer and switched on in the presence of an inducer) was performed as described in U.S. Pat. Nos. 5,364,791; 5,874,534; and 5,935,934. […]
10-14 days post selection 10 nM Mifepristone (InVitrogen), was added to the culture medium to induce the expression of the receptor. […] Receptor bound antibody was detected by incubation of the cells for 60 minutes on ice with a goat anti rabbit antibody, conjugated with Alexa 488 fluorescence marker (Molecular Probes). Following two further washes with Sorting Medium, cells were filtered through a 50 μm Filcon™ (BD Biosciences) and then analysed on a FACS Vantage SE Flow Cytometer fitted with an Automatic Cell Deposition Unit. […]

clearance ([1]; male, CD Sprague Dawley, whole blood, 1 mg/kg intravenous): ~29 mL/min/kg | half-life ([1]; male, CD Sprague Dawley, whole blood, IV route, 1 mg/kg): ~2 h | oral bioavailability in the rat ([1]; oral 3 mg/kg vs intravenous 1 mg/kg): greater than 50 %F | clearance ([2]; male, Beagle, whole blood, 1 mg/kg intravenous): ~10 mL/min/kg | half-life ([2]; male, Beagle, whole blood, IV route, 1 mg/kg): ~5 h | oral bioavailability in the dog ([2]; oral 2 mg/kg vs intravenous 1 mg/kg): about 99 % F | concentration at 5 min [3]: < 100 ng/g | Ki [4]: ~2.51 µM | Ki [5]: ~0.000251 µM
Compound: CS(=O)(=O)c1ccc(C(=O)N2CCN(c3ccc(OC4CCN(C5CCC5)CC4)cc3)CC2)cc1 [compound of formula (I), 1-{4-[(1-Cyclobutyl-4-piperidinyl)oxy]phenyl}4-{[4-(methylsulfonyl)phenyl]carbonyl}piperazine]
